Experimental data published in patent publication US12569482B2, “Methods and compositions for treating idiopathic pulmonary fibrosis” (priority 2018, dated 2026).
Where two headings read alike, the source gives them in different places.

Experiments:
Format in all cases: in vivo, C57BL/6 mice
[1] = Plasma drug levels, Example 2; conditions: C57BL/6, mouse
Method: On Day 5, the mice with bleomycin treatment were divided into four groups at random (referred to as Group 2-5, n=10), and orally administered with vehicle (DMSO: PEG400=1:9, V/V), itraconazole (Kangmanlin Co. Ltd. prepared in DMSO/PEG400 with a final concentration of 1.5 mg/mL), nintedanib (Kangmanlin Co. Ltd., prepared in DMSO/PEG400 with a final concentration of 6.0 mg/mL), and itraconazole+nintedanib (prepared in DMSO/PEG400 with final concentrations of 1.5 mg/mL and 6.0 mg/mL) at daily doses of 10 mL/kg, 15 mg/kg, 60 mg/kg and 15+60 mg/kg, respectively. The mice in the Control group was administered with vehicle (DMSO/PEG400) at a daily dose of 10 mL/kg. Mice body weights were measured and recorded on Day 1, 5, 12, 19 and 21.
Two hours post drug administration on Day 21, all animals were anaesthetized with pentobarbital (i.p., 60 mg/kg). Blood sample, bronchoalveolar lavage fluid (BALF) and lung lobes were collected from each mouse and then processed following the protocols in Example 1.

[2] = tested on: bleomycin-induced lung fibrosis; assay: Bleomycin induced IPF mouse model, Example 1 (oral nintedanib or fluconazole); conditions: nintedanib 60 mg/kg
Method: Forty male C57BL/6 mice (Nanjing Biomedical Research Institute of Nanjing University) were randomly divided into two groups on Day 1, 10 animals for one group (referred to as Control group or Group 1) and 30 for the other. The animals in the Control group were administered intratracheally with PBS at a dose of 2 mL/kg while the others were administered intratracheally with bleomycin (Cat #HY-17565, MCE) at a dose of 0.66 mg/kg.
On Day 5, the mice with bleomycin treatment were divided into three groups at random (referred to as Group 2-4, n=10), and orally administered with vehicle (0.5% Methyl cellulose), nintedanib (Kangmanlin Co. Ltd., prepared in 0.5% Methyl cellulose with a final concentration of 6.0 mg/mL) and fluconazole (Kangmanlin Co. Ltd., prepared in 0.5% Methyl cellulose with a final concentration of 7.0 mg/mL) at daily doses of 10 mL/kg, 60 mg/kg and 70 mg/kg, respectively. The mice in the Control group was administered with vehicle (0.5% Methyl cellulose) at a daily dose of 10 mL/kg. Mice body weights were measured and recorded on Day 1, 5, 12, 19 and 25.
Two hours post drug administration on Day 25, all animals were anaesthetized with pentobarbital (i.p., 65 mg/kg). Blood samples were collected from orbital vein, put in tubes pre-coated with EDTA-K2 (KANG JIAN, Cat #KJ202), centrifuged at 4000×g for 10 minutes at 4° C. and then stored at −80° C. for determination of plasma drug levels. Then, the trachea was exposed, and bronchoalveolar lavage fluid (BALF) was collected from each mouse by injecting 0.3 mL of saline into trachea close to the larynx for three times. After BALF collection, mice were perfused with saline, and all four lung lobes were collected from each mouse, fixed in 10% NBF solution, embedded in paraffin and cut into 5 μm-thick sections. The sections were de-paraffinized with xylene and ethanol and subject to Haematoxylin-Eosin, Masson Trichrome and α-SMA IHC staining.
The bronchoalveolar lavage fluid of 20 μL was mixed with 20 μL of trypan blue to determine the cell number. Then, the cells in the BALF were concentrated using a Cytospinat at 1,000 rpm for 5 minutes, smeared on slides and then stained with Diff-Quik stain. Cell types (alveolar macrophages, neutrophils, or lymphocytes) were determined by counting at least 200 cells using a standard hemocytometer. The rest BALFs were centrifuged and supernatants were collected and stored at −80° C. for soluble collagen analysis.
The Haematoxylin-Eosin staining was used to identify and quantitate the inflammatory cells in the tissues, and the total inflammation area was calculated using the AperioScanScope software.
The sections with Masson Trichrome staining were scored for pulmonary fibrosis according to the modified Ashcroft fibrosis rating criteria in Table 1 below. Each lung lobe was divided into 4 parts according to the distance from the main bronchus, i.e., the upper, upper middle, lower middle and lower parts, which were scored separately and averaged later.
α-SMA is a well characterized marker in fibrosis. Immunohistochemistry staining of α-SMA is often used to characterize and quantitate the tissue fibrosis. Increased staining of α-SMA often reflects accumulation of collagen-producing myofibroblasts. Before α-SMA IHC staining, the de-paraffinized sections were treated with citrate antigen retrieval solution (0.01 N citrate buffer, pH 6.0) at 100° C. for 10 minutes, and then incubated with rabbit polyclonal anti-α-SMA (1:400, ab5694, Abcam) for 1 hour followed by goat anti-rabbit HRP (K4003, Dako). DAB substrate kit (DAB0031, Maixin, Shanghai) was used for chromogenic staining. All sections were further counter-stained with hematoxylin. […] α-SMA staining areas were calculated using the AperioImageScope program.
Statistical analysis was performed using student's T-test, one-way or two-way ANOVA followed by post-hoc Dunnett's test if significant. […] The difference was considered significant when p<0.05. *p<0.05, **p<0.01, ***[…].

[3] = tested on: bleomycin-induced lung fibrosis; assay: Bleomycin induced IPF mouse model, Example 2 (oral itraconazole, nintedanib or combination)
Method: The animals in the Control group were administered intratracheally with PBS at a dose of 2 mL/kg while the others were administered intratracheally with bleomycin (Cat #HY-17565, MCE) at a dose of 0.66 mg/kg. On Day 5, the mice with bleomycin treatment were divided into four groups at random (referred to as Group 2-5, n=10), and orally administered with vehicle (DMSO: PEG400=1:[…]), itraconazole ([…] Co. Ltd. prepared in DMSO/PEG400 with a final concentration of 1.5 mg/mL), nintedanib ([…] Co. […] The mice in the Control group was administered with vehicle (DMSO/PEG400) at a daily dose of 10 mL/kg. Mice body weights were measured and recorded on Day 1, 5, 12, 19 and 21.

[4] = compared to model group, 15 mg/kg, 60 mg/kg, 15+60 mg/kg p.o. daily

COC(=O)c1ccc2c(c1)NC(=O)/C2=C(\Nc1ccc(N(C)C(=O)CN2CCN(C)CC2)cc1)c1ccccc1 [nintedanib]
concentration at 2 h ([1]; oral, Day 21, itraconazole 15 mg/kg, nintedanib 60 mg/kg p.o. daily, read-out: two-hour post dosing plasma level, single agent): 310 ng/mL | concentration at 2 h ([1]; po, Day 21, 15+60 mg/kg p.o. daily, read-out: two-hour post dosing plasma drug level, itraconazole and nintedanib combined in administration): 397 ng/mL | reduction of lung inflammation area ([2]; Haematoxylin-Eosin staining, fluconazole 70 mg/kg p.o. daily): 84% | reduction of modified Ashcroft score ([2]; Masson Trichrome staining, fluconazole 70 mg/kg p.o. daily): 39% | anti-IPF activities / fibrosis related endpoint measurements (overall) ([2]; fluconazole 70 mg/kg daily dose): efficacious | total cell number and macrophage/monocyte number in BALF ([2]; oral daily Day 5-25): reduced cell number to some extent | BALF collagen levels ([2]; oral daily Day 5-25, fluconazole 70 mg/kg, vs bleomycin + vehicle): significantly reduced collagen levels | reduction of α-SMA staining area ([2]; α-SMA IHC, fluconazole 70 mg/kg p.o. daily): 39% | BALF collagen level [3, 4]: reduced | BALF neutrophil number [3, 4]: reduced | lung inflammation area [3, 4]: significantly reduced | modified Ashcroft score [3, 4]: significantly reduced | α-SMA staining area [3, 4]: significantly reduced | mice body weight ([3]; itraconazole 15 mg/kg, nintedanib 60 mg/kg, 15+60 mg/kg p.o. daily Day 5-21): inhibited bleomycin-induced body weight reduction to some extent
